From patent US20150105252A1, “SUBSTITUTED PYRAZOLES AS HERBICIDES” (E I DU PONT DE NEMOURS AND COMPANY, priority 2013, published 2015)

Key:
waterhemp = assay: Test C postemergence; assay type: in vivo, Amaranthus rudis; conditions: postemergence; for Plant response rating, Waterhemp: 250 g ai/ha, scale 0 to 100 (0 no effect, 100 complete control); for Waterhemp plant response rating: scale 0 to 100
Summary of the method: (§1)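 Herbicidal effect is expressed as percent visual control (0–100) judged against untreated plants 13 to 15 days after treatment in the greenhouse. Preemergence pots contained seeds in a soil–sand blend; postemergence plants, 2–18 cm tall, grew in peat-based planting medium.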

ragweed [1] = assay: Test C preemergence; assay type: in vivo, Ambrosia elation
Summary of the method: as §1

soybean [2] = assay: Test C postemergence; assay type: in vivo, Glycine max; conditions: postemergence; for Plant response rating, Soybean: 250 g ai/ha, scale 0 to 100 (0 no effect, 100 complete control); for Soybean plant response rating: 125 g ai/ha, scale 0 to 100, 0 no effect, 100 complete control
Summary of the method: as §1

pigweed = assay: Test C preemergence; assay type: in vivo, Amaranthus retroflexus
Summary of the method: as §1

ragweed [3] = assay: Test C postemergence; assay type: in vivo, Ambrosia elation; conditions: postemergence
Summary of the method: as §1

corn [4] = assay: Test A postemergence; assay type: in vivo, Zea mays
Summary of the method: (§2)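 After sowing in a sand–loam mix, pots received compound preemergence by directed soil spray, or postemergence once plants reached the one- to two-leaf stage (2–10 cm). Formulation contained surfactant in a non-phytotoxic solvent. Injury was scored visually after ~10 greenhouse days, 0–100 scale.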

corn [5] = assay: Test C postemergence; assay type: in vivo, Zea mays; conditions: for Plant response rating (scale of 0 to 100 where 0 is no effect and 100 is complete control), Corn: Postemergence, 31 g ai/ha, visually evaluated after 13 to 15 days; for Corn plant response rating / Plant response rating, Corn: postemergence; for Corn plant response rating: 62 g ai/ha, scale 0 to 100
Summary of the method: as §1

oilseed rape = assay: Test C preemergence; assay type: in vivo, Brassica napus
Summary of the method: as §1

crabgrass, large = assay: Test A postemergence; assay type: in vivo, Digitaria sanguinalis
Summary of the method: as §2

soybean [6] = assay: Test C preemergence; assay type: in vivo, Glycine max
Summary of the method: as §1

wheat [7] = assay: Test A preemergence; assay type: in vivo, Triticum aestivum; conditions: preemergence; for Wheat plant response rating (0 to 100 scale): 125 g ai/ha, visual injury approx. 10 days after treatment
Summary of the method: as §2

velvetleaf [8] = assay: Test C postemergence; assay type: in vivo, Abutilon theophrasti; conditions: postemergence; for Plant response rating, Velvetleaf: 250 g ai/ha, scale 0 to 100 (0 no effect, 100 complete control); for Velvetleaf plant response rating: scale 0 to 100
Summary of the method: as §1

lambsquarters = assay: Test C postemergence; assay type: in vivo, Chenopodium album; conditions: for Plant response rating (scale of 0 to 100 where 0 is no effect and 100 is complete control), Lambsquarters: Postemergence, 31 g ai/ha, visually evaluated after 13 to 15 days; for Lambsquarters plant response rating / Plant response rating, Lambsquarters: postemergence; for Lambsquarters plant response rating: 62 g ai/ha, scale 0 to 100
Summary of the method: as §1

wheat [9] = assay: Test C postemergence; assay type: in vivo, Triticum aestivum; conditions: postemergence; for Plant response rating, Wheat: 250 g ai/ha, scale 0 to 100 (0 no effect, 100 complete control); for Wheat plant response rating: scale 0 to 100
Summary of the method: as §1

foxtail, giant = assay: Test A postemergence; assay type: in vivo, Setaria faberii
Summary of the method: as §2

morningglory = assay: Test A postemergence; assay type: in vivo, Ipomoea spp.; conditions: Postemergence
Summary of the method: as §2

velvetleaf [10] = assay: Test A postemergence; assay type: in vivo, Abutilon theophrasti; conditions: Postemergence
Summary of the method: as §2

[11] = Preemergence, rate head not shown (block before 16 g ai/ha), scale 0 to 100
[12] = preemergence, 62 g ai/ha, scale 0 to 100 (0 no effect, 100 complete control), 13 to 15 days
[13] = preemergence, 125 g ai/ha, 13 to 15 days, scale 0 to 100, 0 = no effect, 100 = complete control
[14] = preemergence, 250 g ai/ha, scale 0 to 100, 0 is no effect, 100 is complete control
[15] = 250 g ai/ha, scale 0 to 100 (0 no effect, 100 complete control)
[16] = 125 g ai/ha, scale 0 to 100, 0 no effect, 100 complete control
[17] = Postemergence, 125 g ai/ha, 0 to 100 scale, 0 no effect, 100 complete control
[18] = Postemergence, 500 g ai/ha, 0 to 100 scale (0 no effect, 100 complete control)
[19] = 125 g ai/ha, 0 to 100 scale, 0 no effect, 100 complete control
[20] = 500 g ai/ha, 0 to 100 scale (0 no effect, 100 complete control)
[21] = preemergence, 31 g ai/ha, visual rating, scale 0 to 100 (0 no effect, 100 complete control), 13 to 15 days
[22] = postemergence, 125 g ai/ha, about 10 days, visual rating on 0 to 100 scale (0 no effect, 100 complete control)

SMILES: CCc1cc(C(=O)NCC(F)(F)F)nn1Cc1ccnc(Br)c1 [Compound 224]
- Plant response rating, Waterhemp (waterhemp): 45
- Waterhemp plant response rating (waterhemp): 50
- Plant response rating, Ragweed (ragweed [1]; [11]): 85
- Ragweed plant response rating (ragweed [1]; [12]): 85
- Plant response rating, Ragweed (ragweed [1]; [13]): 95
- Ragweed plant response rating (ragweed [1]; [14]): 100
- Plant response rating, Soybean (soybean [2]): 60
- Soybean plant response rating (soybean [2]): 70
- Plant response rating, Pigweed (pigweed; [11]): 100
- Pigweed plant response rating (pigweed; [12]): 100
- Plant response rating, Pigweed (pigweed; [13]): 100
- Pigweed plant response rating (pigweed; [14]): 100
- Plant response rating, Ragweed (ragweed [3]; [15]): 35
- Plant response rating, Ragweed (ragweed [3]; [16]): 10
- Corn plant response rating (corn [4]; [17]): 60
- Corn plant response rating (corn [4]; [18]): 90
- Plant response rating (scale of 0 to 100 where 0 is no effect and 100 is complete control), Corn (corn [5]): 5
- Corn plant response rating (corn [5]): 5
- Plant response rating, Corn (corn [5]; [15]): 10
- Plant response rating, Corn (corn [5]; [16]): 10
- Plant response rating, Oilseed Rape (oilseed rape; [11]): 80
- Oilseed Rape plant response rating (oilseed rape; [12]): 90
- Plant response rating, Oilseed Rape (oilseed rape; [13]): 95
- Oilseed Rape plant response rating (oilseed rape; [14]): 95
- Crabgrass, Large plant response rating (crabgrass, large; [17]): 90
- Crabgrass, Large plant response rating (crabgrass, large; [18]): 100
- Plant response rating, Soybean (soybean [6]; [11]): 10
- Soybean plant response rating (soybean [6]; [12]): 40
- Plant response rating, Soybean (soybean [6]; [13]): 65
- Soybean plant response rating (soybean [6]; [14]): 90
- Wheat plant response rating (0 to 100 scale) (wheat [7]): 30
- Plant response rating, Velvetleaf (velvetleaf [8]): 25
- Velvetleaf plant response rating (velvetleaf [8]): 20
- Plant response rating (scale of 0 to 100 where 0 is no effect and 100 is complete control), Lambsquarters (lambsquarters): 35
- Lambsquarters plant response rating (lambsquarters): 40
- Plant response rating, Lambsquarters (lambsquarters; [15]): 60
- Plant response rating, Lambsquarters (lambsquarters; [16]): 45
- Plant response rating, Wheat (wheat [9]): 5
- Wheat plant response rating (wheat [9]): 0
- Foxtail, Giant plant response rating (foxtail, giant; [17]): 90
- Foxtail, Giant plant response rating (foxtail, giant; [18]): 100
- Morningglory plant response rating (morningglory; [19]): 30
- Morningglory plant response rating (morningglory; [20]): 100
- Velvetleaf plant response rating (velvetleaf [10]; [19]): 60
- Velvetleaf plant response rating (velvetleaf [10]; [20]): 100

SMILES: CCCc1cc(C(=O)NC(C)C)nn1Cc1ccnc(C(F)(F)F)c1 [Compound 186]
- Plant response rating, Waterhemp (waterhemp): 90
- Waterhemp plant response rating (waterhemp): 60
- Ragweed plant response rating (ragweed [1]; [21]): 75
- Ragweed plant response rating (ragweed [1]; [12]): 100
- Plant response rating, Ragweed (ragweed [1]; [13]): 95
- Ragweed plant response rating (ragweed [1]; [14]): 98
- Plant response rating, Soybean (soybean [2]): 95
- Soybean plant response rating (soybean [2]): 95
- Pigweed plant response rating (pigweed; [21]): 100
- Pigweed plant response rating (pigweed; [12]): 100
- Plant response rating, Pigweed (pigweed; [13]): 100
- Pigweed plant response rating (pigweed; [14]): 100
- Plant response rating, Ragweed (ragweed [3]; [15]): 70
- Plant response rating, Ragweed (ragweed [3]; [16]): 55
- Corn plant response rating (corn [4]; [18]): 100
- Corn plant response rating (corn [4]; [22]): 100
- Plant response rating (scale of 0 to 100 where 0 is no effect and 100 is complete control), Corn (corn [5]): 5
- Corn plant response rating (corn [5]): 40
- Plant response rating, Corn (corn [5]; [15]): 65
- Plant response rating, Corn (corn [5]; [16]): 75
- Oilseed Rape plant response rating (oilseed rape; [21]): 100
- Oilseed Rape plant response rating (oilseed rape; [12]): 100
- Plant response rating, Oilseed Rape (oilseed rape; [13]): 100
- Oilseed Rape plant response rating (oilseed rape; [14]): 95
- Crabgrass, Large plant response rating (crabgrass, large; [18]): 90
- Crabgrass, Large plant response rating (crabgrass, large; [22]): 90
- Soybean plant response rating (soybean [6]; [21]): 85
- Soybean plant response rating (soybean [6]; [12]): 65
- Plant response rating, Soybean (soybean [6]; [13]): 98
- Soybean plant response rating (soybean [6]; [14]): 98
- Wheat plant response rating (0 to 100 scale) (wheat [7]): 90
- Wheat plant response rating (wheat [7]; 500 g ai/ha, visual injury after approx. 10 days, 0 to 100 scale (0 no effect, 100 complete control)): 100
- Plant response rating, Velvetleaf (velvetleaf [8]): 80
- Velvetleaf plant response rating (velvetleaf [8]): 55
- Plant response rating (scale of 0 to 100 where 0 is no effect and 100 is complete control), Lambsquarters (lambsquarters): 95
- Lambsquarters plant response rating (lambsquarters): 65
- Plant response rating, Lambsquarters (lambsquarters; [15]): 98
- Plant response rating, Lambsquarters (lambsquarters; [16]): 75
- Plant response rating, Wheat (wheat [9]): 20
- Wheat plant response rating (wheat [9]): 15
- Foxtail, Giant plant response rating (foxtail, giant; [18]): 90
- Foxtail, Giant plant response rating (foxtail, giant; [22]): 90
- Morningglory plant response rating (morningglory; [19]): 0
- Morningglory plant response rating (morningglory; [20]): 100
- Velvetleaf plant response rating (velvetleaf [10]; [19]): 20
- Velvetleaf plant response rating (velvetleaf [10]; [20]): 100

SMILES: CCCc1cc(C(=O)NC2CC2)nn1Cc1ccnc(OC(F)F)c1 [Compound 205]
- Plant response rating, Waterhemp (waterhemp): 85
- Waterhemp plant response rating (waterhemp): 70
- Ragweed plant response rating (ragweed [1]; [21]): 80
- Ragweed plant response rating (ragweed [1]; [12]): 100
- Plant response rating, Ragweed (ragweed [1]; [13]): 98
- Ragweed plant response rating (ragweed [1]; [14]): 100
- Plant response rating, Soybean (soybean [2]): 90
- Soybean plant response rating (soybean [2]): 70
- Pigweed plant response rating (pigweed; [21]): 95
- Pigweed plant response rating (pigweed; [12]): 100
- Plant response rating, Pigweed (pigweed; [13]): 100
- Pigweed plant response rating (pigweed; [14]): 100
- Plant response rating, Ragweed (ragweed [3]; [15]): 80
- Plant response rating, Ragweed (ragweed [3]; [16]): 60
- Corn plant response rating (corn [4]; [18]): 100
- Corn plant response rating (corn [4]; [22]): 70
- Plant response rating (scale of 0 to 100 where 0 is no effect and 100 is complete control), Corn (corn [5]): 10
- Corn plant response rating (corn [5]): 10
- Plant response rating, Corn (corn [5]; [15]): 40
- Plant response rating, Corn (corn [5]; [16]): 20
- Oilseed Rape plant response rating (oilseed rape; [21]): 100
- Oilseed Rape plant response rating (oilseed rape; [12]): 100
- Plant response rating, Oilseed Rape (oilseed rape; [13]): 100
- Oilseed Rape plant response rating (oilseed rape; [14]): 100
- Soybean plant response rating (soybean [6]; [21]): 80
- Soybean plant response rating (soybean [6]; [12]): 85
- Plant response rating, Soybean (soybean [6]; [13]): 100
- Soybean plant response rating (soybean [6]; [14]): 100
- Plant response rating, Velvetleaf (velvetleaf [8]): 40
- Velvetleaf plant response rating (velvetleaf [8]): 40
- Plant response rating (scale of 0 to 100 where 0 is no effect and 100 is complete control), Lambsquarters (lambsquarters): 85
- Lambsquarters plant response rating (lambsquarters): 85
- Plant response rating, Lambsquarters (lambsquarters; [15]): 85
- Plant response rating, Lambsquarters (lambsquarters; [16]): 90
- Plant response rating, Wheat (wheat [9]): 5
- Wheat plant response rating (wheat [9]): 5
- Foxtail, Giant plant response rating (foxtail, giant; [18]): 90
- Foxtail, Giant plant response rating (foxtail, giant; [22]): 90
